Experimental data from ChEMBL document CHEMBL1130203, “Novel fluoroquinolone antibacterial agents containing oxime-substituted (aminomethyl)pyrrolidines: synthesis and antibacterial activity of 7-(4-(aminomethyl)-3-(methoxyimino)pyrrolidin-1-yl)-1-cyclopropyl-6- fluoro-4-oxo-1,4-dihydro[1,8]naphthyridine-3-carboxylic acid (LB20304)” (J Med Chem, 1997).
Converted amounts (≈) assume the structure as drawn.

Experiments:
Mus musculus [1] = organism: Mus musculus; test: 50% Effective dose against systemic Infection in mouse by Pseudomonas aeruginosa 1912E; assay type: functional
[2] = maximum Plasma concentration in Rats was determined after Peroral administration; assay type: ADME, organism-based; parameters: route oral; settings: rat, po
[3] = system: Acinetobacter calcoaceticus; test: Minimum inhibitory concentration (MIC) against Acinetobacter calcoaceticus 15473; assay type: functional
[4] = Area under curve was determined in Dogs after peroral administration; assay type: ADME, organism-based, Canis lupus familiaris; settings: dog, in vivo, po
Mus musculus [5] = organism: Mus musculus; test: Minimum inhibitory concentration (MIC) against systemic infection in mouse by Staphylococcus aureus giorgio; assay type: functional
[6] = Oral bioavailability in rat; assay type: ADME, organism-based; settings: in vivo
[7] = Oral Bioavailability was determined in Dogs after Peroral administration; assay type: ADME, organism-based, Canis lupus familiaris; settings: dog, in vivo
[8] = Half-life in Rats was determined after Peroral administration; assay type: ADME, organism-based; settings: rat, in vivo, po
Mus musculus [9] = organism: Mus musculus; test: 50% Effective dose against systemic Infection in mouse by Streptococcus pneumoniae 77A; assay type: functional
Mus musculus [10] = organism: Mus musculus; test: 50% Effective dose against systemic Infection in mouse by Escherichia coli 851E; assay type: functional
Escherichia coli [11] = test: Minimum inhibitory concentration (MIC) against Escherichia coli TEM9 2639E; assay type: functional
[12] = Tmax was determined in dogs after Peroral administration; assay type: ADME, organism-based, Canis lupus familiaris; settings: dog, in vivo, po
[13] = Area under curve was determined in Rats after peroral administration; assay type: ADME, organism-based; settings: rat, in vivo, po
Pseudomonas aeruginosa [14] = test: Minimum inhibitory concentration (MIC) against Pseudomonas aeruginosa 1912E; assay type: functional
[15] = Tmax was determined in Rats after Peroral administration; assay type: ADME, organism-based; settings: rat, in vivo, po
Mus musculus [16] = organism: Mus musculus; test: Minimum inhibitory concentration (MIC) against systemic infection in mouse by Streptococcus pneumoniae 77A; assay type: functional
[17] = Half-life in Dogs was determined after Peroral administration; assay type: ADME, organism-based, Canis lupus familiaris; settings: dog, in vivo, po
Staphylococcus aureus = test: Minimum inhibitory concentration (MIC) against Staphylococcus aureus 241; assay type: functional
[18] = system: Staphylococcus epidermidis; test: Minimum inhibitory concentration (MIC) against Staphylococcus epidermidis 178; assay type: functional
Enterococcus faecalis = test: Minimum inhibitory concentration (MIC) against Streptococcus faecalis 29212; assay type: functional
Pseudomonas aeruginosa [19] = test: Minimum inhibitory concentration (MIC) against Pseudomonas aeruginosa 1912E
Klebsiella aerogenes = test: Minimum inhibitory concentration (MIC) against Klebsiella aerogenes 1082E; assay type: functional
Mus musculus [20] = organism: Mus musculus; test: 50% Effective dose against systemic Infection in mouse by Staphylococcus aureus giorgio; assay type: functional
[21] = maximum Plasma concentration in Dog was determined after Peroral administration; assay type: ADME, organism-based, Canis lupus familiaris; parameters: route oral; settings: po
Escherichia coli [22] = test: Minimum inhibitory concentration (MIC) against Escherichia coli 851E

For `CO/N=C1\CN(c2nc3c(cc2F)c(=O)c(C(=O)O)cn3C2CC2)CC1CN` (stereo in doubt; 20) [GEMIFLOXACIN], the ED50 (Mus musculus [1]) was 2.08 mg/kg, the Cmax [2] was 2440 ng/mL and the MIC [3] was 0.063 µg/mL (≈ 0.162 µM). It also gave an AUC [4] of 7550 ng·h/mL, an MIC (Mus musculus [5]) of under 0.008 µg/mL and a bioavailability [6] of 95.3%. It also gave a bioavailability [7] of 71%, a half-life [8] of 2.33 h and an ED50 (Mus musculus [9]) of 7.64 mg/kg. It also gave an ED50 (Mus musculus [10]) of 0.47 mg/kg, an MIC (Escherichia coli [11]) of 0.031 µg/mL (≈ 0.0796 µM) and a Tmax [12] of 1.13 h. For the same compound, the AUC [13] was 8500 ng·h/mL, the MIC (Pseudomonas aeruginosa [14]) was 0.25 µg/mL (≈ 0.642 µM) and the Tmax [15] was 0.33 h. It also gave an MIC (Mus musculus [16]) of 0.016 µg/mL (≈ 0.0411 µM), a half-life [17] of 5.12 h and an MIC (Staphylococcus aureus) of 4 µg/mL (≈ 10.3 µM). The MIC [18] was 4 µg/mL (≈ 10.3 µM), the MIC (Enterococcus faecalis) was 0.063 µg/mL (≈ 0.162 µM) and the MIC (Pseudomonas aeruginosa [19]) was 0.25 µg/mL (≈ 0.642 µM). For the same compound, the MIC (Klebsiella aerogenes) was 0.031 µg/mL (≈ 0.0796 µM), the ED50 (Mus musculus [20]) was 1.17 mg/kg and the Cmax [21] was 1340 ng/mL. It also gave an MIC (Escherichia coli [22]) of under 0.008 µg/mL.
